In PubChem BioAssay (NCI):
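Test compounds were applied to cells in 96-well plates for 48 hours at 5 doses. GI50 is the concentration that inhibits growth by half. The concentration for full growth arrest is given as TGI.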

Columns and labels:
Test in all cases: growth of human tumour cells (NCI), 48 h
[1] = system: SK-MEL-28 melanoma
[2] = system: TK-10 renal
[3] = system: BT-549 breast
[4] = system: OVCAR-4 ovarian
[5] = system: NCI-H522 lung
[6] = system: RPMI-8226 leukemia
[7] = system: SNB-19 CNS
[8] = system: ACHN renal
[9] = system: CAKI-1 renal
[10] = system: MALME-3M melanoma
[11] = system: SK-OV-3 ovarian
[12] = system: SF-295 CNS
[13] = system: OVCAR-3 ovarian
[14] = system: KM12 colon
[15] = system: PC-3 prostate
[16] = system: IGROV1 ovarian
[17] = system: 786-0 renal
[18] = system: HCT-116 colon
[19] = system: SF-268 CNS
[20] = system: SF-539 CNS
[21] = system: UACC-62 melanoma
[22] = system: SR leukemia
[23] = system: T-47D breast
[24] = system: HOP-62 NSCLC
[25] = system: U251 CNS
[26] = system: LOX IMVI melanoma
[27] = system: MOLT-4 leukemia
[28] = system: OVCAR-5 ovarian
[29] = system: HCC-2998 colon
[30] = system: DU-145 prostate
[31] = system: OVCAR-8 ovarian
[32] = system: HT29 colon
[33] = system: MDA-MB-435
[34] = system: K-562 leukemia
[35] = system: NCI/ADR-RES ovarian
[36] = system: SK-MEL-2 melanoma
[37] = system: NCI-H23 lung
[38] = system: EKVX NSCLC
[39] = system: HCT-15 colon
[40] = system: UACC-257 melanoma
[41] = system: A549 NSCLC
[42] = system: RXF 393 renal
[43] = system: M14 melanoma
[44] = system: UO-31 renal
[45] = system: HL-60(TB) leukemia
[46] = system: MCF7 breast
[47] = system: NCI-H460 lung
[48] = system: COLO 205 colon

SMILES: c1cc2c(s1)SSSSS2
- GI50 [1]: 23 µM
- TGI [1]: 41.9 µM
- GI50 [2]: 16.7 µM
- TGI [2]: 33.5 µM
- GI50 [3]: 33.8 µM
- TGI [3]: 85.9 µM
- GI50 [4]: 24.2 µM
- TGI [4]: 46.9 µM
- GI50 [5]: 27.8 µM
- TGI [5]: 81.8 µM
- GI50 [6]: 7.06 µM
- TGI [6]: 29.4 µM
- GI50 [7]: 22.9 µM
- TGI [7]: 47 µM
- GI50 [8]: 15.5 µM
- TGI [8]: 31.7 µM
- GI50 [9]: 17.8 µM
- TGI [9]: 36.6 µM
- GI50 [10]: 17.1 µM
- TGI [10]: 40.2 µM
- GI50 [11]: 34.5 µM
- TGI [11]: 72.7 µM
- GI50 [12]: 18.3 µM
- TGI [12]: 36.9 µM
- GI50 [13]: 18 µM
- TGI [13]: 34.5 µM
- GI50 [14]: 19.3 µM
- TGI [14]: 38.1 µM
- GI50 [15]: 16.5 µM
- TGI [15]: 39.6 µM
- GI50 [16]: 19 µM
- TGI [16]: 43.1 µM
- GI50 [17]: 14.9 µM
- TGI [17]: 29.1 µM
- GI50 [18]: 9.06 µM
- TGI [18]: 21.2 µM
- GI50 [19]: 19.1 µM
- TGI [19]: 38.6 µM
- GI50 [20]: 21.7 µM
- TGI [20]: 39.6 µM
- GI50 [21]: 13.8 µM
- TGI [21]: 28.1 µM
- GI50 [22]: 3.17 µM
- TGI [22]: 22.8 µM
- GI50 [23]: 13 µM
- TGI [23]: 32.4 µM
- GI50 [24]: 28.2 µM
- TGI [24]: 55.3 µM
- GI50 [25]: 17.6 µM
- TGI [25]: 39.6 µM
- GI50 [26]: 11.9 µM
- TGI [26]: 40.3 µM
- GI50 [27]: 18.8 µM
- TGI [27]: > 100 µM
- GI50 [28]: 21.1 µM
- TGI [28]: 36.6 µM
- GI50 [29]: 24 µM
- TGI [29]: 39.9 µM
- GI50 [30]: 17.1 µM
- TGI [30]: 34.1 µM
- GI50 [31]: 36.3 µM
- TGI [31]: > 100 µM
- GI50 [32]: 23.3 µM
- TGI [32]: 41.4 µM
- GI50 [33]: 18.9 µM
- TGI [33]: 35.8 µM
- GI50 [34]: 16.1 µM
- TGI [34]: > 100 µM
- GI50 [35]: 22.8 µM
- TGI [35]: 46.4 µM
- GI50 [36]: 29.3 µM
- TGI [36]: > 100 µM
- GI50 [37]: 14.6 µM
- TGI [37]: 30.7 µM
- GI50 [38]: 34.6 µM
- TGI [38]: 68.2 µM
- GI50 [39]: 15.8 µM
- TGI [39]: 85.9 µM
- GI50 [40]: 35.2 µM
- TGI [40]: > 100 µM
- GI50 [41]: 31.8 µM
- TGI [41]: > 100 µM
- GI50 [42]: 18.4 µM
- TGI [42]: 41.5 µM
- GI50 [43]: 11.2 µM
- TGI [43]: 29.4 µM
- GI50 [44]: 17.6 µM
- TGI [44]: 33.7 µM
- GI50 [45]: 11.8 µM
- TGI [45]: > 100 µM
- GI50 [46]: 16.4 µM
- TGI [46]: 35 µM
- GI50 [47]: 19.9 µM
- TGI [47]: 42.2 µM
- GI50 [48]: 17.6 µM
- TGI [48]: 46.6 µM
